Reference: patent publication US10231954B2, “Neurodegenerative therapies” (LYTIX BIOPHARMA AS, priority 2014, dated 2019)

What was measured:
Assay type in all cases: biochemical
[1] = target: p38a MAPK (Homo sapiens, UniProt Q16539); assay: Kinase profiling p38a MAPK; details: for residual kinase activity, p38a MAPK: 100 micromolar inhibitor concentration, 100 is no change
From the text: (§1) Any value less that 25 is considered to be highly significant inhibition.

[2] = target: MSK1 (Homo sapiens, UniProt O75582); assay: Kinase profiling MSK1; details: for residual kinase activity, MSK1: 100 micromolar inhibitor concentration, 100 is no change
From the text: as §1

[3] = target: CAMK1 (Homo sapiens, UniProt Q14012); assay: Kinase profiling CAMK1; details: for residual kinase activity, CAMK1: 100 micromolar inhibitor concentration, 100 is no change
From the text: as §1

[4] = target: SmMLCK (Homo sapiens, UniProt Q15746); assay: Kinase profiling SmMLCK; details: 100 micromolar inhibitor concentration, 100 is no change
[5] = target: MARK3 (Homo sapiens, UniProt P27448); assay: Kinase profiling MARK3; details: for residual kinase activity, MARK3: 100 micromolar inhibitor concentration, 100 is no change
From the text: as §1

[6] = target: NEK6 (Homo sapiens, UniProt Q9HC98); assay: Kinase profiling NEK6; details: for residual kinase activity, NEK6: 100 micromolar inhibitor concentration, 100 is no change
From the text: as §1

[7] = target: T1, TBK1 (Homo sapiens, UniProt Q9UHD2); assay: Kinase profiling TBK1; details: for residual kinase activity, TBK1: 100 micromolar inhibitor concentration, 100 is no change
T1 sequence (Q9UHD2 1-729): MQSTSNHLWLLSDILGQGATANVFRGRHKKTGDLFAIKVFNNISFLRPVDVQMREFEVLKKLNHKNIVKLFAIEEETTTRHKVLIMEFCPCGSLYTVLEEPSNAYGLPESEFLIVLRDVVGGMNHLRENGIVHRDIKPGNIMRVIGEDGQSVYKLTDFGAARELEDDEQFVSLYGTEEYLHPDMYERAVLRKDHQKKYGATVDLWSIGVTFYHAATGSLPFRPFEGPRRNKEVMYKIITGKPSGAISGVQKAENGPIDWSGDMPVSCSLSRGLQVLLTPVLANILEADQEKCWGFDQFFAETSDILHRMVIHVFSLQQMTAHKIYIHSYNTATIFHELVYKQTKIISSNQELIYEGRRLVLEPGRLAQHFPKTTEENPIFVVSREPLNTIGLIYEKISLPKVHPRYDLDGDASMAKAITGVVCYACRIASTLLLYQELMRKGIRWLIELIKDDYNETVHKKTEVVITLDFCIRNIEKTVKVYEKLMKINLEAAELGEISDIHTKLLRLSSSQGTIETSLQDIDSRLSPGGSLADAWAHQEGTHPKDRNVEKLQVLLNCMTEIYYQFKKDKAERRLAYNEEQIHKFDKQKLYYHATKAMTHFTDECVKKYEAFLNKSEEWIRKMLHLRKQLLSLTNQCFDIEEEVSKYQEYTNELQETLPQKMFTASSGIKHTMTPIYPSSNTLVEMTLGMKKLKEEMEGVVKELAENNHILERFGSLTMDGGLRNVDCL
From the text: as §1

[8] = target: PAK4 (Homo sapiens, UniProt O96013); assay: Kinase profiling PAK4; details: for residual kinase activity, PAK4: 100 micromolar inhibitor concentration, 100 is no change
From the text: as §1

[9] = target: T2, MST2 (Homo sapiens, UniProt Q13188); assay: Kinase profiling MST2; details: for residual kinase activity, MST2: 100 micromolar inhibitor concentration, 100 is no change
T2 sequence (Q13188 1-491): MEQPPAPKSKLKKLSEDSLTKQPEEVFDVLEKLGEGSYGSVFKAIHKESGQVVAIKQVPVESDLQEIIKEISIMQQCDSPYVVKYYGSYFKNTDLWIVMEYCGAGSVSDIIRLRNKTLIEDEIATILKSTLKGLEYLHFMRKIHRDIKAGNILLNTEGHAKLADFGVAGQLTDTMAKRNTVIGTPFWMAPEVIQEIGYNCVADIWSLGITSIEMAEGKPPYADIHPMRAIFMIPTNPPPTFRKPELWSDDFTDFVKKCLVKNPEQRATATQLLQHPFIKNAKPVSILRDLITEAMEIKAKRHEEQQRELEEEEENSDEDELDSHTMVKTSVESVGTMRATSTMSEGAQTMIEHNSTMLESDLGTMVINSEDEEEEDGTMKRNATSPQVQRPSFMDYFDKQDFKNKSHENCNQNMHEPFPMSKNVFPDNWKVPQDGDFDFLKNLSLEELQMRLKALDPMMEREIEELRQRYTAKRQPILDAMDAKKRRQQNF
From the text: as §1

[10] = target: MLK3 (Homo sapiens, UniProt Q16584); assay: Kinase profiling MLK3; details: for residual kinase activity, MLK3: 100 micromolar inhibitor concentration, 100 is no change
From the text: as §1

[11] = target: T3, IRAK4 (Homo sapiens, UniProt Q9NWZ3); assay: Kinase profiling IRAK4; details: for residual kinase activity, IRAK4: 100 micromolar inhibitor concentration, 100 is no change
T3 sequence (Q9NWZ3 1-460): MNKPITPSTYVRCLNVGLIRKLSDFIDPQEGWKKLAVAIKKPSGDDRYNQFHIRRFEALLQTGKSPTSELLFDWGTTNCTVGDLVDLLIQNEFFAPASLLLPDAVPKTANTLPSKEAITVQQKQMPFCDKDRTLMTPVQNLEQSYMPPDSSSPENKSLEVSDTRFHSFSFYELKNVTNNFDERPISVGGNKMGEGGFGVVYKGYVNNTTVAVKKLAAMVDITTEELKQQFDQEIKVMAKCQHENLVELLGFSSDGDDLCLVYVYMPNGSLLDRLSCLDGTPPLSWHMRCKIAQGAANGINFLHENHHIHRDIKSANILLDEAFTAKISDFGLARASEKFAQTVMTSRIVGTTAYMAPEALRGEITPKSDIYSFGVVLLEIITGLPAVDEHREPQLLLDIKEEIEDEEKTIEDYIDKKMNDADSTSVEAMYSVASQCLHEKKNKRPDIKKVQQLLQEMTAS
From the text: as §1

[12] = target: SYK (Homo sapiens, UniProt P43405); assay: Kinase profiling SYK; details: for residual kinase activity, SYK: 100 micromolar inhibitor concentration, 100 is no change
From the text: as §1

Chain of MLK3 (Q16584 whole entry, species assumed): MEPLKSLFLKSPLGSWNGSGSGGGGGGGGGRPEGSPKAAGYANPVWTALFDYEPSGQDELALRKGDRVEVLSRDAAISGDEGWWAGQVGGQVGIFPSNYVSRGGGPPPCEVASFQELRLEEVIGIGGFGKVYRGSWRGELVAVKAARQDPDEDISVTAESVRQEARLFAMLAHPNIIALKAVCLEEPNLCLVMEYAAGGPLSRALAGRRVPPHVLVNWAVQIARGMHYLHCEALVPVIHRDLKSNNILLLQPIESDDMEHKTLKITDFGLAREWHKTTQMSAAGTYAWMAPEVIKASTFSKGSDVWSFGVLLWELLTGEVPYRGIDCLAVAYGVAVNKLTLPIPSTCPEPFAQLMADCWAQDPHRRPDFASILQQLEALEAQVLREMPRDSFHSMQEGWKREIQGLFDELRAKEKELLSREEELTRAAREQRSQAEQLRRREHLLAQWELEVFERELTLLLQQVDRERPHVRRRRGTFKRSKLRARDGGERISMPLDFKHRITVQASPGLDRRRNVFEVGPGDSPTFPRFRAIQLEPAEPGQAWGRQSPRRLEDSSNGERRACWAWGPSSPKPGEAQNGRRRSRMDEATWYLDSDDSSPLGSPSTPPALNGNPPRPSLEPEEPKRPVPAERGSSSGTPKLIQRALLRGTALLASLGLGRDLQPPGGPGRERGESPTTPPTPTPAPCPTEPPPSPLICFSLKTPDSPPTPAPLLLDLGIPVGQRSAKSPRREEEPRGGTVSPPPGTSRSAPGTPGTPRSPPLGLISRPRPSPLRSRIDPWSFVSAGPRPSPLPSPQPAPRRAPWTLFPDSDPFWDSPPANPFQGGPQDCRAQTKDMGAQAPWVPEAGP
Chain of SmMLCK (Q15746 923-1914): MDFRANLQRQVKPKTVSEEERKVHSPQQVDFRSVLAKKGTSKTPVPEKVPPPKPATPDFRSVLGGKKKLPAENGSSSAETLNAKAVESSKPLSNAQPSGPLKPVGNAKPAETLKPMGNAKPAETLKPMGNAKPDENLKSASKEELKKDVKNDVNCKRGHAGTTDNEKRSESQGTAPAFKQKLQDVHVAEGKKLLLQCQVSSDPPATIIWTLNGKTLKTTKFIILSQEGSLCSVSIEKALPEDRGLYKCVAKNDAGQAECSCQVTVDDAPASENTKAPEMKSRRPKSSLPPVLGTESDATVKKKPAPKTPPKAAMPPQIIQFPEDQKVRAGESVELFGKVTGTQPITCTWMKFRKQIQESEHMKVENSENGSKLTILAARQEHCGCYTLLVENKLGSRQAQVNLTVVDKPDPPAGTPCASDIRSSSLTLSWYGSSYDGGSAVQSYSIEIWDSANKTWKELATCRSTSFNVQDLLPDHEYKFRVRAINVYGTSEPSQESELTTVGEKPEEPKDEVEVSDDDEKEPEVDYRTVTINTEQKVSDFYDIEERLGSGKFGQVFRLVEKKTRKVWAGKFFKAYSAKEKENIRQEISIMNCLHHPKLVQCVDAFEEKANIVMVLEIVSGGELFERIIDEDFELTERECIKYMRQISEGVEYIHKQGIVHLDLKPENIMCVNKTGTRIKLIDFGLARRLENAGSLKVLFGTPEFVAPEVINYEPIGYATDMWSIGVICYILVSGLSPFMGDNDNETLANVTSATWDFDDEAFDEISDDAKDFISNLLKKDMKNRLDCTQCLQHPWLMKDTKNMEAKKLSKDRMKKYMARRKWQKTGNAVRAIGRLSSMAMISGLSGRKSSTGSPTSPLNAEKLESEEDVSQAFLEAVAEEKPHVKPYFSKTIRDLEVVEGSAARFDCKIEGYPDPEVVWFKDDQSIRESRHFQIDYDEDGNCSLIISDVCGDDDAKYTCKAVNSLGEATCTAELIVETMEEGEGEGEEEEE
Chain of MARK3 (P27448 whole entry, species assumed): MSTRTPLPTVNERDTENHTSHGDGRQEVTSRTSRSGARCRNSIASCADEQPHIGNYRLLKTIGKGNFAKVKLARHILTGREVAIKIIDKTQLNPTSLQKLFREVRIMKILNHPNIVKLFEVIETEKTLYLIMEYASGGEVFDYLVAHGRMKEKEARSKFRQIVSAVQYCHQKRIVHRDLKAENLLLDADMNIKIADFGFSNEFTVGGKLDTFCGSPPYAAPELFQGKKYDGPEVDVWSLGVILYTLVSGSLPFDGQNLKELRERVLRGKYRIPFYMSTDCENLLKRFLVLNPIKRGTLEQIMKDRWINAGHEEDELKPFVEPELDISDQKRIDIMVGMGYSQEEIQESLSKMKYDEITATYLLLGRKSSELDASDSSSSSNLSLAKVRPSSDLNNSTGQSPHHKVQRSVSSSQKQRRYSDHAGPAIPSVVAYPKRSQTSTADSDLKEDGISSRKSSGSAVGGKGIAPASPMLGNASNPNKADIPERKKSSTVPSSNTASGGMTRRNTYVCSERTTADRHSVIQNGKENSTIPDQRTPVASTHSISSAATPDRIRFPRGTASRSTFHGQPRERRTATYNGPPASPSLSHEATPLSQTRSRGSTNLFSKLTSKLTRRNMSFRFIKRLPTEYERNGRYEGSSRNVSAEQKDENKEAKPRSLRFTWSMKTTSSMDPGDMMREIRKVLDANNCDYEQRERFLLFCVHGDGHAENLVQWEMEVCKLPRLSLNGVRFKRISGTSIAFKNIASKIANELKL
Chain of PAK4 (O96013 whole entry, species assumed): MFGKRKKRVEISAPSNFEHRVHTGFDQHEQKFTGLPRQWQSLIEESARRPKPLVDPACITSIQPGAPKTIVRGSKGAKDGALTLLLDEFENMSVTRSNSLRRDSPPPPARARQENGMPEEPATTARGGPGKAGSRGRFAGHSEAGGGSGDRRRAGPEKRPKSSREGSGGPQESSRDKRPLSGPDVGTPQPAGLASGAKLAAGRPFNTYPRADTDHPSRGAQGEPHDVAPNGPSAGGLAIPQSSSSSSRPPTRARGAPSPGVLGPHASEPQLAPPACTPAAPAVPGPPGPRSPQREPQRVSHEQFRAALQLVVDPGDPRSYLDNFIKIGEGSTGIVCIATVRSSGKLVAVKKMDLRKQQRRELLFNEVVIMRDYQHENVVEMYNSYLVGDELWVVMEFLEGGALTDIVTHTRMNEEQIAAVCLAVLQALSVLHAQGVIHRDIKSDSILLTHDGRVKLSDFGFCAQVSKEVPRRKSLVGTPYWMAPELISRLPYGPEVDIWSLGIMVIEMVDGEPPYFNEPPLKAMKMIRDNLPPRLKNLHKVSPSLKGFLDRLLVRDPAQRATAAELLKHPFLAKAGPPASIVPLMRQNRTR
Chain of CAMK1 (Q14012 whole entry, species assumed): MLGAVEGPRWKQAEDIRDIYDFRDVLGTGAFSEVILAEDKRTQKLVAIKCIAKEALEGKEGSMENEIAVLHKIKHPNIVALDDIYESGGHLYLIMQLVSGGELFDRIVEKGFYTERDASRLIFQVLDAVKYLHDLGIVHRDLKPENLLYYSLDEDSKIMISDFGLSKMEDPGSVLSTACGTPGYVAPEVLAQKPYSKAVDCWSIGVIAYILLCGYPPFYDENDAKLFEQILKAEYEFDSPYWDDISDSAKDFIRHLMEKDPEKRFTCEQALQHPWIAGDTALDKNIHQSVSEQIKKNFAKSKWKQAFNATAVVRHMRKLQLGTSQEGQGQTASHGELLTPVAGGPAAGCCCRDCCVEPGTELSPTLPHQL
Chain of p38a MAPK (Q16539 whole entry): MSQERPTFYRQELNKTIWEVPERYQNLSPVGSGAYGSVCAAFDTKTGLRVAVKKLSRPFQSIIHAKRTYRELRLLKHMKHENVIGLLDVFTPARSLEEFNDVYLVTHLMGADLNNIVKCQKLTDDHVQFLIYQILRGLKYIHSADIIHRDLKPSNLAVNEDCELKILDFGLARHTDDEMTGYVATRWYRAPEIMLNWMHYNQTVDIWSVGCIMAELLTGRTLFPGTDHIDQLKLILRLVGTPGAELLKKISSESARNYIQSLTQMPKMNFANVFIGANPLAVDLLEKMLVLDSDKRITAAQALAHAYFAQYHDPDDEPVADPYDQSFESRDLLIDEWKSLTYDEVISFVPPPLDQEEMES
Chain of NEK6 (Q9HC98 whole entry, species assumed): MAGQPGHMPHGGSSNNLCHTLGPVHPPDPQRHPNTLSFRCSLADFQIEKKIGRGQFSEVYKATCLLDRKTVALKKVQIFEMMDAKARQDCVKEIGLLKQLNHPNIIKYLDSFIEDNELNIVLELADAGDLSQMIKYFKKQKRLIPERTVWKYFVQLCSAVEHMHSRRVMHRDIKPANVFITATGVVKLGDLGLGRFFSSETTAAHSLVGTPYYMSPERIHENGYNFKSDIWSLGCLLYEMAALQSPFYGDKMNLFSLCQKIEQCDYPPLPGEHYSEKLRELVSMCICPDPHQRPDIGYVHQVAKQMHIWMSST
Chain of MSK1 (O75582 whole entry, species assumed): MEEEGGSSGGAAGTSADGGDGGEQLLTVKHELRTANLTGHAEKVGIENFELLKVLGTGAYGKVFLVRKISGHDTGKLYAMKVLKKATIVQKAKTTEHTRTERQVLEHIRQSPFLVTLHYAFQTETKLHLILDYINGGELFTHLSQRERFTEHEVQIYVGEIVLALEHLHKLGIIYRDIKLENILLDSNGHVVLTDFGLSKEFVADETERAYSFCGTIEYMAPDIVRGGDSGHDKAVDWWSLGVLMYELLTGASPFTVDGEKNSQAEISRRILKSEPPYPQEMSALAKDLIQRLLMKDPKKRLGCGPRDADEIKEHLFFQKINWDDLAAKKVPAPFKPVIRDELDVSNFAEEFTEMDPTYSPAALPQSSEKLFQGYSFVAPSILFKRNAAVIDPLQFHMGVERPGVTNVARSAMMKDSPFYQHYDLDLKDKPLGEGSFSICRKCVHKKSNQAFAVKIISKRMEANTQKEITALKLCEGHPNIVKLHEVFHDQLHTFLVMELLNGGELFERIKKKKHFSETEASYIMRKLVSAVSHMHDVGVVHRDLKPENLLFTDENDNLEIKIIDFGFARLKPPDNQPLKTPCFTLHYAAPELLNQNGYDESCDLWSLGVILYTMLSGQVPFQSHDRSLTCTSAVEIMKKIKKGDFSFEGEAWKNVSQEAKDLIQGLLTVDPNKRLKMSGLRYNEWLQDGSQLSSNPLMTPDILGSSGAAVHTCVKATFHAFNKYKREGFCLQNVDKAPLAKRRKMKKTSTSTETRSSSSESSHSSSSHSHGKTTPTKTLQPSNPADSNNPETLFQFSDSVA

SMILES | residual kinase activity, p38a MAPK [1] | residual kinase activity, MSK1 [2] | residual kinase activity, CAMK1 [3] | residual kinase activity, SmMLCK [4] | residual kinase activity, MARK3 [5] | residual kinase activity, NEK6 [6] | residual kinase activity, TBK1 [7] | residual kinase activity, PAK4 [8] | residual kinase activity, MST2 [9] | residual kinase activity, MLK3 [10] | residual kinase activity, IRAK4 [11] | residual kinase activity, SYK [12] | also measured
O=C(Nc1nc2ccc(F)cc2s1)c1ccccc1 [Compound 03-92] | 114 | 81 | 97 | 68 | 109 | 106 | 92 | 111 | 110 | 49 | 72 | 117 | 
CC(=O)Nc1nc2ccc(F)cc2s1 [Compound 03-94] | 84 | 88 | 86 | 67 | 96 | 92 | 91 | 66 | 91 | 46 | 44 | 96 | 
COc1ccc2sc(NC(=O)c3ccccc3)nc2c1 [Compound 03-95] | 82 | 67 | 76 | 48 | 106 | 86 | 100 | 107 | 95 | 40 | 57 | 83 | 
COc1ccc2nc(NC(=O)c3ccccc3)sc2c1 [Compound 03-98] | 86 | 90 | 68 | 75 | 72 | 94 | 95 | 37 | 86 | 20 | 46 | 109 | 
O=C(Nc1nc2ccc(C(F)(F)F)cc2s1)c1ccccc1 [Compound 03-99] | 86 | 70 | 84 | 89 | 106 | 94 | 96 | 154 | 93 | 72 | 70 | 120 | 
O=C(Nc1nc2cc(O)ccc2s1)c1ccccc1 [Compound 03-102] | 57 | 72 | 72 | 15 | 63 | 112 | 66 | 67 | 46 | 15 | 34 | 80 | 
COC(=O)c1cccc(C(=O)Nc2nc3ccc(C(F)(F)F)cc3s2)c1 [Compound 03-105, Methyl 3-((6-(trifluoromethyl)benzo[d]thiazol-2-yl)carbamoyl)benzoate] |  |  |  |  |  |  |  |  |  |  |  |  | remaining activity at 100 µM ([1]; read-out: residual kinase activity, p38a MAPK): 84%; remaining activity at 100 µM ([2]; read-out: residual kinase activity, MSK1): 84%; remaining activity at 100 µM ([3]; read-out: residual kinase activity, CAMK1): 92%; remaining activity at 100 µM ([4]; read-out: residual kinase activity, SmMLCK): 63%; remaining activity at 100 µM ([5]; read-out: residual kinase activity, MARK3): 103%; remaining activity at 100 µM ([6]; read-out: residual kinase activity, NEK6): 90%; remaining activity at 100 µM ([7]; read-out: residual kinase activity, TBK1): 101%; remaining activity at 100 µM ([8]; read-out: residual kinase activity, PAK4): 89%; remaining activity at 100 µM ([9]; read-out: residual kinase activity, MST2): 99%; remaining activity at 100 µM ([10]; read-out: residual kinase activity, MLK3): 54%; remaining activity at 100 µM ([11]; read-out: residual kinase activity, IRAK4): 78%; remaining activity at 100 µM ([12]; read-out: residual kinase activity, SYK): 102%
N#Cc1ccc2nc(NC(=O)c3ccccc3)sc2c1 [Compound 03-106] | 60 | 64 | 69 | 94 | 98 | 97 | 94 | 94 | 103 | 56 | 70 | 93 | 
COC(=O)c1cccc(C(=O)Nc2nc3cc(OC)ccc3s2)c1 [Compound 03-108] | 94 | 88 | 96 | 79 | 100 | 93 | 102 | 100 | 77 | 76 | 63 | 96 | 
